Activity calls are given as the source filed them.
What was measured:
[1] = toxicity to A549 lung cells – cell-based, plate reader, dry powder, set 6, cytotoxicity control, dose response (AID 743312); type: functional
[2] = cells; conditions: HEK293
[3] = target: Transthyretin (Homo sapiens, UniProt P02766); experiment: Luminescence-based cell-based high throughput dose response assay to identify activators of Transthyretin (TTR) transcription.; type: functional
[4] = viability loss in A549 lung cells – cell-based, 24 h, CellTiter-Glo luminescence, cherry-picks, cytotoxicity control, dose response (AID 1053115); type: functional; conditions: A549, 24 h
[5] = P. falciparum Dd2 growth inhibitors, dose response, SYBR Green, cherry-picked samples (AID 1159567); type: functional, cell-based
[6] = Luminescence-based cell-based high throughput dose response assay to identify activators of the DAF-12 from the parasite S. stercoralis (ssDAF-12).; type: functional
[7] = target: T1, Oxysterols receptor LXR-beta (Homo sapiens, UniProt P55055); experiment: LXR agonists, Gal4 luciferase reporter, dose response, counter-screen for ssDAF-12 agonist project, cell-based, luminescence, HEK293, S. stercoralis campaign (AID 720737); type: functional; conditions: read-out: IC50 (the source's name)
T1 sequence (P55055 whole entry): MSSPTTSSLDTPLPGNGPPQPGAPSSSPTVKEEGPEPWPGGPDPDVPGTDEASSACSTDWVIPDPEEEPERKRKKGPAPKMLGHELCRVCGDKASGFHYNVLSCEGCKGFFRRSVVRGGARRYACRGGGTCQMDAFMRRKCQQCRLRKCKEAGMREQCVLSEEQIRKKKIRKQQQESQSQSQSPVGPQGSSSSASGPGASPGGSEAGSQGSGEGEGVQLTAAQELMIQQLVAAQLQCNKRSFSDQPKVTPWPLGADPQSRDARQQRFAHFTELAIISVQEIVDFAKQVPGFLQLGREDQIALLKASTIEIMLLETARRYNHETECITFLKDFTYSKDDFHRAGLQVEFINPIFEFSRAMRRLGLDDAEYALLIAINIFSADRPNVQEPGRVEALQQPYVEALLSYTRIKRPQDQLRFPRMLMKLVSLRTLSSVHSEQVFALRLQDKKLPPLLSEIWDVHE

[8] = target: T1, Oxysterols receptor LXR-beta; type: functional, cell-based
[9] = cells
[10] = rise of 2N DNA cells, HeLa – IC50, dose response (AID 1117349); type: functional, cell-based
[11] = rise of 4N DNA cells, HeLa – IC50, dose response (AID 1117351); type: functional, cell-based
[12] = target: NAD-dependent protein deacylase sirtuin-5, mitochondrial (Homo sapiens, UniProt Q9NXA8); experiment: sirtuin-5 deacylation blockers, concentration series – biochemical, fluorescence imaging, cherry-pick, set 5, dose response (AID 720591);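 further: desuccinylation of succinyl peptide AMC substrate read as fluorescence after trypsin release; potency of inhibitors that lower fluorescence and may act on trypsin instead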
Sequence of NAD-dependent protein deacylase sirtuin-5, mitochondrial (Q9NXA8 whole entry): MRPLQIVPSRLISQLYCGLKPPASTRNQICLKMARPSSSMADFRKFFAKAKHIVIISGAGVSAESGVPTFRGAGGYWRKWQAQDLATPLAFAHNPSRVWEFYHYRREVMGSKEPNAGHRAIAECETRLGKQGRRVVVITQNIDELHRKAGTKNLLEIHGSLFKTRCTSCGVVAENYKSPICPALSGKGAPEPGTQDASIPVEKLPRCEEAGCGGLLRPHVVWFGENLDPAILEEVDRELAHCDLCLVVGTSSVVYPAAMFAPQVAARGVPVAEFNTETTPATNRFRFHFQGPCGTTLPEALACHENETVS

[13] = ATP-based viability loss in HepG2 cells – cell-based, CellTiter-Glo luminescence, dry powder, set 3, cytotoxicity control, dose response (AID 720594); type: functional
[14] = ATP-based viability loss in HEK293T cells – cell-based, CellTiter-Glo luminescence, dry powder, set 2, cytotoxicity control, dose response (AID 720595); type: functional; conditions: HEK293
[15] = dual-tagged ARNT PAS-B bead signal quenchers – biochemical, dry powder, artefact control for ARNT/TACC3 disruptor project, dose response (AID 720564)
[16] = Late stage assay provider results from the probe development effort to identify inhibitors of the Plasmodium falciparum M18 Aspartyl Aminopeptidase (M18AAP): radiolabel-based cell-based dose response assay to identify compounds that inhibit P. falciparum growth in RBCs, Set 2..; type: functional
[17] = test system: Cryptococcus neoformans; experiment: PubChem AID 686997; type: functional, organism-based
[18] = test system: HEK293; experiment: viability loss in HEK293T cells – cell-based, ATP luminescence, cherry-pick samples, cytotoxicity control, dose response (AID 687005); type: functional; conditions: Homo sapiens;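 further: cells exposed to compound for 48 hours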
[19] = HEK293 Cytotoxicity Assay Measured in Cell-Based System Using Plate Reader - 7071-01_Inhibitor_Dose_CherryPick_Activity_Set2.; type: functional
[20] = target: G-protein coupled receptor 183 (Homo sapiens, UniProt P32249); experiment: SAR confirmation of small molecule antagonists of the EBI2 receptor via a luminescent beta-arrestin assa.; type: functional
Sequence of G-protein coupled receptor 183 (P32249 whole entry): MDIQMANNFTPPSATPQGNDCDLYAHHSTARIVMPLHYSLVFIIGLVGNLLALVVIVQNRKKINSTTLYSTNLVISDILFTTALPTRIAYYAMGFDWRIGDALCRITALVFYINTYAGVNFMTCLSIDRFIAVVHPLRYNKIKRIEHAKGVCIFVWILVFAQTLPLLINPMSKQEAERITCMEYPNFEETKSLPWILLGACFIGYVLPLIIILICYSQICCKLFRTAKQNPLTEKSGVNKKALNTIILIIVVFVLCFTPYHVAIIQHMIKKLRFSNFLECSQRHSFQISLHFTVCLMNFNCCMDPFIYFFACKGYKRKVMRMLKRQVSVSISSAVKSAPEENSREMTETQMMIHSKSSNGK

[21] = MITF Orthogonal Assay: SK-MEL-5 CTG Assay Measured in Cell-Based System Using Plate Reader - 2084-02_Inhibitor_Dose_DryPowder_Activity_Set7.; type: functional
[22] = MITF: Counter assay: A375 proliferation Measured in Cell-Based System Using Plate Reader - 2084-03_Inhibitor_Dose_DryPowder_Activity_Set8.; type: functional; conditions: A-375
[23] = inhibitors of TRPM1-promoter reporter in SK-MEL-5 – cell-based, luciferase, dry powder, set 8, MITF inhibitor project, dose response (AID 624430); type: functional
[24] = reduction of Shn3 3'UTR-driven luciferase in osteoblasts – cell-based, Clone20 osteoblasts, firefly luciferase, cherry-picked, dose response (AID 624132); type: functional;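 further: firefly luciferase luminescence from reporter carrying the Shn3 3'UTR in osteoblasts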
[25] = loss of viability in HepG2 cells – cell-based, CellTiter-Glo, cherry-picked, cytotoxicity control for Shn3 inhibitor project, dose response (AID 624134); type: functional
[26] = non-specific 3'UTR reporter inhibition in Clone20-Shn3RL – cell-based, Renilla luciferase, cherry-picked, counter-screen for Shn3 inhibitor project, dose response (AID 624133); type: functional
[27] = Shn3 3'UTR reporter signal decrease – cell-based, Clone20 osteoblasts, firefly luciferase, cherry-pick, set 2, Schnurri-3 inhibitor project, dose response (AID 720490); type: functional;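 further: actives lower the luminescence signal as inhibitors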

For `Cc1ccc(OCCn2cnc3ccccc32)c(C(C)C)c1`, which AC50 [1] is on record?
The AC50 was 24.5 µM (active).

What about the AC50 [2] of the same molecule?
The AC50 was 39.8 µM (active).

For `Cc1cc(C(=O)N2CCc3ccccc32)n(-c2ccccc2)n1`, which EC50 [3] is on record?
Its EC50 is > 167 µM (inactive).

With `OC[C@H]1Nc2ccc(-c3ccccc3)cc2[C@H]2[C@@H]1CCN2Cc1ccc(F)cc1` as the molecule, how does the AC50 [4] read?
The AC50 was 46.4 µM (active).

What about the AC50 [5] of the same molecule?
Its AC50 is 1.25 µM (active).

With `O=[N+]([O-])c1ccc2oc(-c3cccc(O)c3)nc2c1` as the molecule, how does the IC50 [6] read?
Its IC50 is > 67.5 µM (inactive).

What about the EC50 [7] of the same molecule?
Its EC50 is > 67.5 µM (inactive).

What about the EC50 [8] of the same molecule?
The EC50 was > 67.6 µM (inactive).

What about the EC50 [9] of the same molecule?
The EC50 was > 67.6 µM (inactive).

Which IC50 [10] does the source give for `CCCCCCCCCCCCCCCC[N+](C)(C)Cc1ccccc1` [CETALKONIUM CHLORIDE] here?
Its IC50 is > 10 µM (inactive).

And the IC50 [11]?
The IC50 was > 10 µM (inactive).

With `CCOc1ccc(CCN2C(=O)C(=O)N([C@@H](Cc3ccccc3)CN3CCC[C@@H]3CN3C(=O)C(=O)NC[C@@H]3Cc3ccc(O)cc3)C[C@@H]2Cc2ccccc2)cc1` as the molecule, how does the AC50 [12] read?
The AC50 was > 30 µM (inactive).

For `CC1CCN(S(=O)(=O)c2ccc(C(=O)Nc3nnc(-c4ccccc4)o3)cc2)CC1`, which AC50 [13] is on record?
The AC50 was > 52 µM (inactive).

And the AC50 [14]?
Its AC50 is 2.57 µM (active).

What about the AC50 [15] of the same molecule?
The AC50 was 86.8 µM (active).

For `COc1ccc(CNc2c3ccccc3nc3ccccc23)cc1OC`, which IC50 [16] is on record?
Its IC50 is 1.05 µM (active).

With `COC(=O)C1=C(C)N(CC(C)C)C(=S)NC1c1ccc(F)cc1` (configuration not stated) as the molecule, how does the AC50 [17] read?
Its AC50 is > 84 µM (inactive).

And the AC50 [18]?
Its AC50 is 40.3 µM (active).

What about the AC50 [19] of the same molecule?
Its AC50 is 40.3 µM (active).

For `O=C(/C=C/c1ccc(Br)cc1)N1CCN(C(=O)c2ccc(C(F)(F)F)cc2)CC1`, which IC50 [20] is on record?
Its IC50 is 0.00188 µM (active).

With `CN1CCN(C2=C(Nc3ccc(Br)cc3)C(=O)c3ccccc3C2=O)CC1` as the molecule, how does the AC50 [21] read?
The AC50 was 7.8 µM (active).

And the AC50 [22]?
Its AC50 is 27 µM (active).

What about the AC50 [23] of the same molecule?
The AC50 was 5.56 µM (active).

With `Cc1ccc(CNC(=O)c2cc3c(C)nc4ccccc4c3o2)cc1` as the molecule, how does the AC50 [24] read?
The AC50 was 2.49 µM (active).

What about the AC50 [25] of the same molecule?
The AC50 was 64.3 µM (active).

What about the AC50 [26] of the same molecule?
Its AC50 is 12.2 µM (active).

And the AC50 [27]?
The AC50 was 4.02 µM (active).

Reference: ChEMBL document CHEMBL1201862, “PubChem BioAssay data set” (2004)
